Reference: patent US20240100170A1, “CYCLIC-AMP RESPONSE ELEMENT BINDING PROTEIN (CBP) AND/OR ADENOVIRAL E1A BINDING PROTEIN OF 300 KDA (P300) DEGRADATION COMPOUNDS AND METHODS OF USE” (CULLGEN (SHANGHAI), INC., priority 2020, published 2024)
“Also recorded” adds a separate entry of the source.

Key:
CBP [1] = target: T1, CBP (Homo sapiens, UniProt Q92793); assay: CBP immunoblotting in 22RV1 subcutaneous xenograft tumors; assay type: in vivo, athymic nude mice; design: from tissue; host or cells: 22RV1 subcutaneous xenograft tumours in athymic nude mice; details: single dose 40 mg/kg, intraperitoneally or orally, six hours after administration; FIG. 9
T1 sequence (Q92793 whole entry): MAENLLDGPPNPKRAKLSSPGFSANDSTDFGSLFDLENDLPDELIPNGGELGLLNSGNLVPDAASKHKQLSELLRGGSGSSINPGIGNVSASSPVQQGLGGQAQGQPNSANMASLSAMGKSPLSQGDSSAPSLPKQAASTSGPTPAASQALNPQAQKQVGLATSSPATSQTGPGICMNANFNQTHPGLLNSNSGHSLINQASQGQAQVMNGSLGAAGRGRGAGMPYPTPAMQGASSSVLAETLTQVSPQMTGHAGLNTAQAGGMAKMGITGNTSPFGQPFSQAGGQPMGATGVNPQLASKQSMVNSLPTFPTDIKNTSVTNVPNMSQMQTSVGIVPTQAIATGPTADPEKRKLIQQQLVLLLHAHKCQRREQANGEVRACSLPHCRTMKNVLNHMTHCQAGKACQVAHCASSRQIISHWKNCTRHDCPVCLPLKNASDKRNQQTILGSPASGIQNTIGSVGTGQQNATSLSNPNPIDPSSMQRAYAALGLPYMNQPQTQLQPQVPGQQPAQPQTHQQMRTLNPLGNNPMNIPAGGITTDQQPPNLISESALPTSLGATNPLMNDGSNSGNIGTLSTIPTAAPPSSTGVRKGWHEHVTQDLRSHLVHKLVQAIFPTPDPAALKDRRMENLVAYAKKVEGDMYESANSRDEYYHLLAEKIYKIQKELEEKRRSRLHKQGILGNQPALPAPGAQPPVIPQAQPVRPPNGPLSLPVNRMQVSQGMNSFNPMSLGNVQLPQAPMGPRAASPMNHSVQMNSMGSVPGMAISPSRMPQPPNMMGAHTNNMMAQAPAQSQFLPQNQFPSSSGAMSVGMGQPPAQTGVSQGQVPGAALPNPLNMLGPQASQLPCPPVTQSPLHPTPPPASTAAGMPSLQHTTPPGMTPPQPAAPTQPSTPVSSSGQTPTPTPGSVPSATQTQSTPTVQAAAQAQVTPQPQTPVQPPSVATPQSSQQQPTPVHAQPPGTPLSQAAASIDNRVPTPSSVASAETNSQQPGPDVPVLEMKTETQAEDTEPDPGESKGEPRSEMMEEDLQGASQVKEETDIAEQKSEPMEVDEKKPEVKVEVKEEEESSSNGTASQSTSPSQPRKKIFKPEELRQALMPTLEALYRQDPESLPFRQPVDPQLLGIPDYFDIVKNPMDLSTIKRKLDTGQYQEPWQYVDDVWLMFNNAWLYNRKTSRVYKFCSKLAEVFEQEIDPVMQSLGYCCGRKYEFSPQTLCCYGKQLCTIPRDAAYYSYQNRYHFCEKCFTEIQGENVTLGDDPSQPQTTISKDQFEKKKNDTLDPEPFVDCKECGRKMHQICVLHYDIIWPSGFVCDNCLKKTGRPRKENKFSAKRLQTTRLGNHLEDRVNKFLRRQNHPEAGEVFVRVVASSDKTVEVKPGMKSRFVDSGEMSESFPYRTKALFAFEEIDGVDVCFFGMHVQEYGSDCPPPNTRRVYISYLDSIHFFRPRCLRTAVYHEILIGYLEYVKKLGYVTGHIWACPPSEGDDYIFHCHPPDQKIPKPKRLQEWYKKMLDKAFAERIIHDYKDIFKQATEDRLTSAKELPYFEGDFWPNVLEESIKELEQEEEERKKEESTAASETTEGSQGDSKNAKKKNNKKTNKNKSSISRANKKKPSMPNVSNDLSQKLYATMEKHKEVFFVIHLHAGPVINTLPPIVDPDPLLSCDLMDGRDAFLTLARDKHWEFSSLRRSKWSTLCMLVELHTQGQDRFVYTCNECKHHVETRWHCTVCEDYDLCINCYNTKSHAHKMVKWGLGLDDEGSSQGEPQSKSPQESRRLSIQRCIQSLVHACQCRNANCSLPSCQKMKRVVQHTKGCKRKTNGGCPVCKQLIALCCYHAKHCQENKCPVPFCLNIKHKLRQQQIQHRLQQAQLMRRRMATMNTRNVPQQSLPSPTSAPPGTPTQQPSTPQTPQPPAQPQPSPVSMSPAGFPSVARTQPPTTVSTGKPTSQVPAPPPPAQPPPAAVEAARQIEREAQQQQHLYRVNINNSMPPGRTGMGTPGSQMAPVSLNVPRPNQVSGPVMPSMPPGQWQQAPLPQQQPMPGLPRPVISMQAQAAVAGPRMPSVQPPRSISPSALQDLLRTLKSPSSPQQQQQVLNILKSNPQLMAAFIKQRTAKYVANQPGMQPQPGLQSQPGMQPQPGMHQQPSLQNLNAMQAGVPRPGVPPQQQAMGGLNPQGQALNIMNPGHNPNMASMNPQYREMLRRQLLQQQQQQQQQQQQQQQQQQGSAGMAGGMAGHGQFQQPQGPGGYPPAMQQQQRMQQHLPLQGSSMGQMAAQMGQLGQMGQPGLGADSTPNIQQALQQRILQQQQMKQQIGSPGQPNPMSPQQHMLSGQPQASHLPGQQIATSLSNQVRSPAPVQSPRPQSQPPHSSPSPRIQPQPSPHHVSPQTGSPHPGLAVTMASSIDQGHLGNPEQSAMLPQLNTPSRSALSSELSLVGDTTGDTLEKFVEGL
Method: (§1) In addition to cultured cells, athymic nude mice bearing 22RV1 subcutaneous xenograft tumors at the right flank were intraperitoneally or orally treated with 40 mg/kg bivalent compounds. Six hours after drug administration, animals were sacrificed for immunoblotting of P300 and CBP in homogenized xenograft tumor masses. […] Moreover, ICR mice were orally treated with 40 mg/kg bivalent compounds. Six hours after drug administration, animals were sacrificed for immunoblotting of CBP in homogenized lung tissues.
(§2) Athymic nude mice bearing 22RV1 subcutaneous xenograft tumors at the right flank were intraperitoneally or orally treated with selected bivalent compounds at 40 mg/kg. Six hours after drug administration, animals were sacrificed, and xenograft tumors were collected for immunoblotting of P300 and CBP.
(§3) Cultured cells or tissue chunks were washed with cold PBS once and lysed in cold RIPA buffer supplemented with protease inhibitors and phosphatase inhibitors (Beyotime Biotechnology). The solutions were then incubated at 4° C. for 30 minutes with gentle agitation to fully lyse cells. Cell lysates were centrifuged at 13,000 rpm for 10 minutes at 4° C. and pellets were discarded. Total protein concentrations in the lysates were determined by BCA assays (Beyotime Biotechnology). Cell lysates were mixed with Laemmli loading buffer to 1 X and heated at 99° C. for 5 min. Proteins were resolved on SDS-PAGE and visualized by chemiluminescence. Images were taken by a ChemiDoc MP Imaging system (Bio-Rad). Protein bands were quantitated using the accompanied software provided by Bio-Rad.
(§4) All animal experiments were performed under protocols approved by the Institutional Animal Care and Use Committee (IACUC) of Cullgen. Athymic nude mice (male, 5-weeks old) received 5 million 22RV1 cells subcutaneously inoculated at the right flank site. Twenty days following inoculation, tumors were approxmiately 500 mm^3 in size. Tumor-bearing mice were treated intraperitoneally or via oral gavage with vehicle or bivalent compounds at indicated doses. […]

P300 [2] = target: T2, P300 (Homo sapiens, UniProt Q09472); assay: P300 immunoblotting in 22RV1 subcutaneous xenograft tumors; assay type: in vivo, athymic nude mice; design: from tissue; host or cells: 22RV1 subcutaneous xenograft tumours in athymic nude mice; details: single dose 40 mg/kg, intraperitoneally or orally, six hours after administration; FIG. 9
T2 sequence (Q09472 whole entry): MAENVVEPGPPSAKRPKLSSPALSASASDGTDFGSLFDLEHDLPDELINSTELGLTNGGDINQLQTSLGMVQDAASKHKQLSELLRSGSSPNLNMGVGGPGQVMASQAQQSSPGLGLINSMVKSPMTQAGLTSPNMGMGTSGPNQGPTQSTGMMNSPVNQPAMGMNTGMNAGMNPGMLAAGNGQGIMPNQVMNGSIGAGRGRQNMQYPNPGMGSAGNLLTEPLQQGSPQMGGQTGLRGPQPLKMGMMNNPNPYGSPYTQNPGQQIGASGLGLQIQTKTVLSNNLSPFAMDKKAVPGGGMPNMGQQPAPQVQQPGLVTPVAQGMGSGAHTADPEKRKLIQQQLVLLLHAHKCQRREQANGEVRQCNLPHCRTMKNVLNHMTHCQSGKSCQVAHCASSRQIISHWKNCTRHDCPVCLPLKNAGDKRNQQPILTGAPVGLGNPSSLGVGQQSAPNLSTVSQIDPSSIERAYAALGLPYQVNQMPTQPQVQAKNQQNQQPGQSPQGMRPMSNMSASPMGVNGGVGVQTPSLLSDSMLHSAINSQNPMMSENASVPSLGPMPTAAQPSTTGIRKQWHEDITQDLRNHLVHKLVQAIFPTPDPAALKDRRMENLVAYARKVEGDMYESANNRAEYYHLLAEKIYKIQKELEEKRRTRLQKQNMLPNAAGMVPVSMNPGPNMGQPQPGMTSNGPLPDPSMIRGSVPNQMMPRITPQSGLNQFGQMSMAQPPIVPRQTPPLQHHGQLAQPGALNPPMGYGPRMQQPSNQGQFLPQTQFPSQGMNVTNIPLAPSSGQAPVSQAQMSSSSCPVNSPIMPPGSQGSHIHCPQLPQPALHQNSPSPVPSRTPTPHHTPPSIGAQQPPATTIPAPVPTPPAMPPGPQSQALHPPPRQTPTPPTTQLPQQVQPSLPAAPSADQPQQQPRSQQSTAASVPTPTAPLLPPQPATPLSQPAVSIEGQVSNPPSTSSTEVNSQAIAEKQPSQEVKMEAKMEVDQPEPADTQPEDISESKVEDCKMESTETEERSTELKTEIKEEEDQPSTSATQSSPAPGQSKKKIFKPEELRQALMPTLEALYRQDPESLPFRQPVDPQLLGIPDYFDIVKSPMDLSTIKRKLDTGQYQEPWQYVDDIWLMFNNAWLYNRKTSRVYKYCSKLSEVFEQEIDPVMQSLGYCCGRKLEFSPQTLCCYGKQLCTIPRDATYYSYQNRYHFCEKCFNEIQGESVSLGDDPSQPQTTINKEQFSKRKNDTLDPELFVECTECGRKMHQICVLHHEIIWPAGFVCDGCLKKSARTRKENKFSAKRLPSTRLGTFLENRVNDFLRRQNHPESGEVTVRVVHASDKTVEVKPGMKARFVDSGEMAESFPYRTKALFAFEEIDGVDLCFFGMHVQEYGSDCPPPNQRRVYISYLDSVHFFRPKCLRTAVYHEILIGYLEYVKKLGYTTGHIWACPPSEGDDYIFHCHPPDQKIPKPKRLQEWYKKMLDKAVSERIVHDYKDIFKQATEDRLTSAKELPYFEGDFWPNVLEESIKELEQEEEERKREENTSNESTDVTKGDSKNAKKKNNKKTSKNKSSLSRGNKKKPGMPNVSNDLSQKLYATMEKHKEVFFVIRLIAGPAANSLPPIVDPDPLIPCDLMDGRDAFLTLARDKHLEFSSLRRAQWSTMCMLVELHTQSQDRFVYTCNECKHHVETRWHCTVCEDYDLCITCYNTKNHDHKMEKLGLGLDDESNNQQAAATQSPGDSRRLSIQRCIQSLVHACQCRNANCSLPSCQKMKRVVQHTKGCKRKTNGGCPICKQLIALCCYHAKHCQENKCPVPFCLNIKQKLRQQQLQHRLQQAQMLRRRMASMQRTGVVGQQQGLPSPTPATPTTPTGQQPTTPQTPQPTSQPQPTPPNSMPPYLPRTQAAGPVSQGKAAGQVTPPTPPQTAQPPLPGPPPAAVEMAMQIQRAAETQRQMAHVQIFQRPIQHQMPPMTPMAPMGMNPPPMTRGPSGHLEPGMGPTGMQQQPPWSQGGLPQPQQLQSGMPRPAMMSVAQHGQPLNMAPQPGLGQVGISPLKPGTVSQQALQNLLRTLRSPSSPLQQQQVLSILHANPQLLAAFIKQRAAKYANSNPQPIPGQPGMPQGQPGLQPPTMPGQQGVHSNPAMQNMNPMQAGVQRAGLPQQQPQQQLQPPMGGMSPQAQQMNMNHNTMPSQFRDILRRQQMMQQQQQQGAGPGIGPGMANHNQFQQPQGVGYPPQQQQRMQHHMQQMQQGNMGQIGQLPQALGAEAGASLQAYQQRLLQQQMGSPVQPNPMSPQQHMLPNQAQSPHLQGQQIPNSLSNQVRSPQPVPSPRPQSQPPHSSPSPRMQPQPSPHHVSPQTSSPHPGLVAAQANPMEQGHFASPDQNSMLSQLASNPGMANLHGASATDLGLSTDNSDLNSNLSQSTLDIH
Method: as §1, §2, §3, §4

CBP [3] = target: T1, CBP; assay: CBP protein level by immunoblotting in LNCaP cells; assay type: cell-based; design: LNCaP or 22RV1 cells that express CBP/P300 proteins were treated with GNE-781 or the bivalent compounds; endogenous in cells; host or cells: LNCaP (clone FGC); details: single dose, FIG. 8
Method: (§5) Specific exemplary bivalent compounds were characterized in LNCaP or 22RV1 cells. LNCaP or 22RV1 cells that express CBP/P300 proteins were treated with GNE-781 or the bivalent compounds disclosed herein (P-001 to P-265) for indicated hours. Cells were collected, lysed and subject to immunoblotting using an antibody specific to P300 or CBP proteins. Tubulin or vinculin was included as the loading control. DMSO was used as the negative control.
(§6) LNCaP (clone FGC), 22RV1 and other cells were cultured at 37° C. with 5% CO 2 in RPMI 1640 Medium supplemented with 10% fetal bovine serum. Cells were authenticated using the short tandem repeat (STR) assays. Mycoplasma test results were negative.
as §3

P300 [4] = target: T2, P300; assay: P300 protein level by immunoblotting in 22RV1 cells; assay type: cell-based; design: LNCaP or 22RV1 cells that express CBP/P300 proteins were treated with GNE-781 or the bivalent compounds; endogenous in cells; host or cells: LNCaP or 22RV1 (not given); details: various concentrations, compound vs analogue that lost cereblon binding, FIG. 7B
Method: as §5, §6
as §3, with “Proteins were resolved on SDS-PAGE and visualized by chemiluminescence. Images were taken by a ChemiDoc MP Imaging system (Bio-Rad).” left out

P300 [5] = target: T2, P300; assay: P300 protein level by immunoblotting in LNCaP cells; assay type: cell-based; design: LNCaP or 22RV1 cells that express CBP/P300 proteins were treated with GNE-781 or the bivalent compounds; endogenous in cells; host or cells: LNCaP or 22RV1 (not given); details: for degradation of P300 in combination with pomalidomide, MG-132, Bortezomib or MLN4924: single dose, FIG. 8; for P300 protein levels: various concentrations, compound vs analogue that lost cereblon binding, FIG. 7A
Method: as §5, §6, §3

CBP protein levels in xenograft tumors (CBP [1])	P300 protein levels in xenograft tumors (P300 [2])	Structure (SMILES)	degradation of CBP in combination with pomalidomide, MG-132, Bortezomib or MLN4924 (CBP [3])	P300 protein levels (P300 [4])	degradation of P300 in combination with pomalidomide, MG-132, Bortezomib or MLN4924 (P300 [5])	P300 protein levels (P300 [5])
significantly reducing	significantly reducing	CC(=O)N1CCc2c(c(N3CCCc4cc(-c5cnn(C)c5)c(C(F)F)cc43)nn2C2CCN(C(=O)CCCCCNc3cccc4c3C(=O)N(C3CCC(=O)NC3=O)C4=O)CC2)C1 (stereo not shown) [P-100, 4-((6-(4-(5-acetyl-3-(7-(difluoromethyl)-6-(1-methyl-1H-pyrazol-4-yl)-3,4-dihydroquinolin-1(2H)-yl)-4,5,6,7-tetrahydro-1H-pyrazolo[4,3-c]pyridin-1-yl)piperidin-1-yl)-6-oxohexyl)amino)-2-(2,6-dioxopiperidin-3-yl)isoindoline-1,3-dione]	compromised; also recorded: could be neutralized	reduced P300 protein levels in a concentration-dependent manner	compromised; also recorded: could be neutralized	reduced P300 protein levels in a concentration-dependent manner
significantly reducing	significantly reducing	CNC(=O)N1CCc2c(c(N3CCCc4cc(-c5cnn(C)c5)c(C(F)F)cc43)nn2C2CCN(C(=O)CCCCCCCNc3ccc4c(c3)C(=O)N(C3CCC(=O)NC3=O)C4=O)CC2)C1 (stereo not shown) [P-007, 3-(7-(difluoromethyl)-6-(1-methyl-1H-pyrazol-4-yl)-3,4-dihydroquinolin-1(2H)-yl)-1-(1-(8-((2-(2,6-dioxopiperidin-3-yl)-1,3-dioxoisoindolin-5-yl)amino)octanoyl)piperidin-4-yl)-N-methyl-1,4,6,7-tetrahydro-5H-pyrazolo[4,3-c]pyridine-5-carboxamide]	compromised; also recorded: could be neutralized		compromised; also recorded: could be neutralized	
significantly reducing	significantly reducing	CNC(=O)N1CCc2c(c(N3CCCc4cc(-c5cnn(C)c5)c(C(F)F)cc43)nn2C2CCN(C(=O)CCCCCNc3cccc4c3C(=O)N(C3CCC(=O)NC3=O)C4=O)CC2)C1 (stereo not shown) [P-034, 3-(7-(difluoromethyl)-6-(1-methyl-1H-pyrazol-4-yl)-3,4-dihydroquinolin-1(2H)-yl)-1-(1-(6-((2-(2,6-dioxopiperidin-3-yl)-1,3-dioxoisoindolin-4-yl)amino)hexanoyl)piperidin-4-yl)-N-methyl-1,4,6,7-tetrahydro-5H-pyrazolo[4,3-c]pyridine-5-carboxamide]	compromised; also recorded: could be neutralized	a chemical modification that disrupted cereblon binding abolished P300 degradation	compromised; also recorded: could be neutralized	a chemical modification that disrupted cereblon binding abolished P300 degradation
